# According to US12691124B2, “Methods of controlling and improving brain health” (ICAHN SCHOOL OF MEDICINE AT MOUNT SINAI, priority 2019, dated 2026):
# Assays:
# C57bl/6 mice = assay: Kainic acid injection in the hippocampus, cCASP3 immunostaining; format: in vivo, mouse; details: 30 mg/kg i.p. daily 1 week, then kainic acid, 24 h
# Method: C57bl/6 mice were daily treated with IBET858 (30 mg/kg, i.p.) for 1 week, followed by stereotaxic injection of kainic acid in the hippocampus. Mice were perfused 24 hours after kainic acid injection and brains were immunostained for cCASP3 to identify dying cells.
# primary cortical neurons [1] = assay: Hypoxia (1% O2) induced neuronal death; format: cell-based, mouse; details: 1% O2, 1 week pretreatment
# Excerpt: While glutamate toxicity is a widely used and clinically relevant assay, there are other factors that contribute to neuronal death in vivo such as lack of oxygen which occurs after stroke or protein aggregates which are observed in many neurodegenerative disorders. To understand if the observed protective effect is specific to glutamate toxicity, neurons were exposed to either hypoxic (1% O2) environments or Aβ1-43 oligomers (FIGS. 10E and 10F).
# IBET treatment protects neurons from neurotoxin-induced cell death (FIGS. 22C-22E). Dot plots show the percentage of cells that are propidium iodide negative after different neurotoxic insults when pre-treated with either control or iBET for 1 week. 6 hours and 24 hours after 1 mM glutamate exposure are shown in FIG. 22C; 18 hours, 24 hours, and 48 hours of hypoxia (1% O2) are shown in FIG. 22D; and 48 hours and 72 hours of Aβ1-43 oligomer exposure (10 μM) are shown in FIG. 22E. Two-way repeated measures ANOVA with multiple comparisons, n=3 per group, ***p<0.001. Experiments were repeated a minimum of three times.
# mTOR = mTOR signaling in neurons (p70-S6k Thr389 phosphorylation); format: cell-based, mouse
# Method: (§1) Immunoblotting. Mice were anesthetized with CO2 followed by decapitation, and the region of interest was rapidly dissected and frozen in liquid nitrogen and stored at −80° C. until further processing. Samples were sonicated at 4° C. in 1% SDS solution supplemented with protease, Trichostatin A (500 ng/ml) and PhosStop phosphatase inhibitor (Roche, Switzerland), and boiled for ten minutes. The protein concentration was determined using a BCA protein assay kit (ThermoFisherScientific, USA) according to the manufacturer's instructions. Protein samples were diluted in equal volume of 2×LDS sample buffer (Invitrogen) and supplemented with DTT to a final concentration of 200 mM (Sigma).
# Additionally, there is significant agreement between genes sensitive to BET inhibition and mTOR inhibition.
# [2] = system: primary cortical neurons exposed to glutamate; assay: Glutamate excitotoxicity in primary cortical neurons; format: cell-based, mouse
# Method: LDH Assay. LDH activity was measured using the Pierce LDH Cytotoxicity Assay Kit. Culture media was incubated with an equal volume of LDH master mix and incubated for 30 minutes at room temperature in the dark. After, the same volume of stop reagent was added and the absorbance was measured at 490 and 680 nm. Maximum LDH measurements were obtained by adding lysis buffer to release the total amount of LDH in the sample. LDH release is calculated as a percent of the maximum.
# Propidium Iodide Assay. Propidium iodide (1 mg/ml, Life Technologies #P3566) was added to each culture well at a final concentration of 0.5 μg/ml. Cultures were incubated for 30 minutes at 37 degrees then washed with PBS. Cells were then fixed with 4% paraformaldehyde in PBS for 15 minutes at room temperature. After fixation, cells were washed with PBS and then mounted using mounting media containing DAPI.
# In addition to increasing longevity, rapamycin treatment protects neurons from toxic stimuli such as excessive glutamate. […] Because IBET858 increased neuronal lifespan to the same extent as rapamycin, it was hypothesized that BET inhibition could also induce a protective state in neurons. To test if IBET858 can prevent neuronal death, the neurons were exposed to excitotoxic levels of glutamate, a common in vitro assay that mirrors neuronal death observed in vivo after stroke or neurodegeneration. High levels of glutamate cause a strong influx of calcium into the neuron ultimately leading to necrosis followed by apoptosis.
# Neurons were treated with IBET858 for increasing durations (2 h, 24 h, 72 h or 1 week) before stimulation with an excitotoxic amount of glutamate (1 mM) on day 14 when mature synapses fully express glutamate receptors. Chronic but not acute BET inhibition increases neuronal survival in response to glutamate toxicity, as measured by the LDH assay. […] Therefore a 1 week treatment time point was used for all subsequent experiments.
# primary cortical neurons [3] = assay: Autophagy, protein content and cell size in neurons (LC3II/LC3I, BCA, Map2+ area); format: cell-based, mouse
# Method: as §1
# Because autophagy increases lipid species which are mostly non-polar, they are not detected in the polar metabolite data. However, if autophagy is, in fact, activated after BET inhibition, the neurons would be smaller and possibly contain less protein. Indeed, total protein content is decreased by 13% as measured by the BCA assay after one week of BET inhibition (FIG. 13C). […] Moreover, BET inhibition causes an almost three-fold increase in autophagy as measured by the ratio of LC3II to LC3I, a common autophagic marker (FIG. 13D).
# Primary cortical neurons treated with IBET858 for 1 week have decreased glycolysis and amino acid metabolites (FIG. 21A). […] A summary of gene expression and metabolite data highlighting downregulation of solute carriers and metabolites that support anabolic and oxidative metabolic programs and an upregulation of neuroprotective metabolites and programs, such as autophagy (FIG. 21C). The glycolytic capacity of primary cortical neurons treated with acute (24 hour) or chronic (1 week) of IBET858 (FIGS. 21D-21H). IBET treated neurons was evaluated using the Seahorse assay. […] Further, the neurons display a decrease in glycolytic capacity as measured by the extracellular acidification rate (ECAR) (FIG. 21H). 1 week of IBET858 treatment increases autophagy as measured by an increase in the LC3 II/I ratio and a decrease in overall protein content by BCA assay (FIGS. 21I and 21J). CAG-RFP-EGFP-Map1lc3b mice expressing the LC3 protein together with RFP and a pH-dependent eGFP were used to evaluate the number of autophagic vesicles by immunofluorescence (FIGS. 21K and 21L). […] Frequency distribution of autophagic vesicles after 24 hours (left) or 1 week (right) treatment with IBET858 (FIG. 21L).
smiles,measurement,setting,value
CC(=O)N1c2ccc(-c3ccc(CN4CCCCC4)cc3)cc2[C@H](Nc2ccccc2)CC1C (stereo in doubt) [IBET858],glutamate-induced toxicity in vivo (cCASP3 dying cells),C57bl/6 mice,protects neurons from glutamate-induced toxicity in vivo
same,loss of neurons due to hypoxia,primary cortical neurons [1],significantly prevents loss of neurons
same,"mTOR activity, phosphorylation of p70-S6k at Thr389",mTOR,"significant, time-dependent decrease"
same,mTOR protein levels,mTOR,does not affect
same,"protection from excitotoxicity, IBET858 compared with rapamycin","[2]; 1 week IBET858 1 μM, Rapamycin 20 nM, 1 mM glutamate",as well as rapamycin
same,"cell death after glutamate exposure, propidium iodide","[2]; 1 week pretreatment, 1 mM glutamate",fewer neurons treated with IBET858 die
same,"excitotoxicity-induced neuronal death, LDH assay","[2]; 1 week pretreatment, 1 mM glutamate, day 14",almost completely prevents
same,"excitotoxicity-induced neuronal death, LDH assay","[2]; 72 h pretreatment, 1 mM glutamate",mild protective effect
same,"neuroprotective phenotype after washout, glutamate exposure","[2]; temporary pretreatment, wash out, 4 days on DMSO, 1 mM glutamate day 14",neuroprotective phenotype that is maintained even in the absence of IBET
same,decrease in somatic area (Map2+ area),primary cortical neurons [3],25%
same,autophagic vesicles (CAG-RFP-EGFP-Map1lc3b neurons),primary cortical neurons [3]; 1 w,an increase in autophagic vesicles
same,"increase in autophagy, ratio of LC3II to LC3I",primary cortical neurons [3]; 1 week,three
same,"decrease in total protein content, BCA assay",primary cortical neurons [3]; one week of BET inhibition,13%
